According to US20100221445A1, “O-DESMETHYLVENLAFAXINE AND BAZEDOXIFENE COMBINATION PRODUCT AND USES THEREOF” (Wyeth LLC, priority 2005, published 2010):

Key:
[1] = tested on: bone loss and cholesterol; settings: ovariectomized rat model of osteopenia; cited from earlier work
[2] = tested on: uterine response; settings: preclinical models of uterine stimulation; cited from earlier work
[3] = tested on: MCF-7 cell line (human breast cancer cell line); settings: MCF-7 human breast cancer cell line; cited from earlier work
[4] = Dissolution of bilayer tablets in 0.2% Tween 80/10 mM Acetic acid at 37° C.; format: physicochemical
[5] = Storage stability of DVS/Bazedoxifene bilayered tablets (strength, % recovery); settings: 25/60 and 40/75 for 3 months
Protocol: 80 DVS/Bazedoxifene bilayered tablets (150 mg/40 mg respectively) were stored at 25° C./60 relative humidity (RH) and 40° C./75 RH in a 50-mL high density polyethylene (HDPE) closed container for 2 weeks, 1 month and 3 months. The strengths of each active constituents and the dissolution rate in 0.2% Tween 80/10 mM Acetic acid at 37° C. were monitored.

[6] = tested on: reuptake of serotonin and norepinephrine; settings: cited from earlier work

In the case of `Cc1c(-c2ccc(O)cc2)n(Cc2ccc(OCCN3CCCCCC3)cc2)c2ccc(O)cc12` [BZA, 1-[4-(2-azepan-1-yl-ethoxy)-benzyl]-2-(4-hydroxy-phenyl)-3-methyl-1H-indol-5-ol acetic acid], the “Effect in preventing bone loss and reducing cholesterol” value [1] is listed as “estrogen agonist-like effect”, the “Stimulation of uterine response” value [2] is listed as “little or no stimulation” and the “Behaviour in MCF-7 cell line” value [3] is listed as “estrogen antagonist”.
For `CN(C)CC(c1ccc(O)cc1)C1(O)CCCCC1` (stereo not shown) [DVS], the “Release (in words)” value ([4]; first 2 hours) was “slow release” and the “Release (in words)” value ([4]; in 24 hours) was “complete release”.
For `CN(C)CC(c1ccc(O)cc1)C1(O)CCCCC1` (stereo not shown) [ODV, 1-[2-(dimethylamino)-1-(4-phenol)ethyl]-cyclohexanol], the “Stability on storage (in words)” value [5] is given as “stable” and the “Blockade of reuptake of serotonin and norepinephrine” value [6] is given as “selectively blocks”.
